Results on two molecules are retold here after patent publication US20220048900A1, “AMORPHOUS SPARSENTAN COMPOSITIONS” (Travere Therapuetics, Inc., priority 2018, published 2022).

The nature of series [1]: MDSC of sparsentan and spray dried sparsentan dispersions. The series is classed as physicochemical. On the procedure: MDSC was performed using a TA Instruments Q200 differential scanning calorimeter equipped with a TA instruments Refrigerated Cooling System 90. MDSC was used to measure glass transition temperature (Tg), cold crystallization (Tc), defined as a crystallization event at a temperature lower than the melt temperature, and melting temperature (Tm). Samples were placed in non-hermetic aluminum pans and heated at a constant rate of 2.0° C./min over a 25-200° C. temperature range. The system was purged by nitrogen flow at 50 mL/min to ensure inert atmosphere through the course of measurement.
Thermal properties, melting temperature (Tm), glass transition temperature (Tg), and crystallization temperature (Tc) of sparsentan was measured by MDSC. The Tg was measured via a melt-quench technique, heating past its melting temperature and rapidly cooling to trap the molten material in an amorphous state. The resulting sample was analyzed by MDSC and a Tg of 42° C. was determined (FIG. 4).

Series [2] in a line: Pharmacokinetics of crystalline and amorphous sparsentan formulations, single IV or PO dose (Example 4). To be noted: for % F (dose-normalized AUC0-24 hr PO/IV): vs IV crystalline sparsentan 1 mg/kg. The format is in vivo, male Sprague Dawley rats. On the procedure: Sparsentan was administered intravenously as a bolus injection (“IV”) or orally (“PO”) to male Sprague Dawley rats in a single dose, as described in Table 11. Four sparsentan formulations were tested: crystalline sparsentan (“Crystalline Sp”); spray dried dispersion particles formed from a 50:50 mixture of sparsentan and polyvinylpyrrolidone-vinyl acetate copolymer (“50:50 Sp:PVP-VA SDD”); spray dried dispersion particles formed from a 50:50 mixture of sparsentan and hydroxypropyl methylcellulose (“50:50 Sp:HPMC E3LV SDD”); and spray dried dispersion particles formed from a 50:50 mixture of sparsentan and hypromellose acetate succinate HG (“50:50 Sp: HPMCAS-H SDD”). Formulations were administered in a vehicle comprised of either a mixture of PEG400:ethanol:sterile water (30:30:40 v/v/v) (“A”) or a mixture of 0.5% Methocel A4M, 0.1% Tween-80 in purified water (“B”).
Blood samples were collected at 0.083 (Group 1 only), 0.25, 0.5, 1, 2, 4, 6, 8, and 24 hours post dose. Blood was collected into tubes containing K2EDTA and centrifuged, and resulting plasma samples were obtained. For each group, the following PK parameters were determined: maximum observed plasma concentration (Cmax), time of maximum observed plasma concentration (Tmax), and area under the plasma concentration-time curve (AUC). AUC from time 0 to 24 hours (AUC0-24 hr) was calculated for all groups with at least three consecutive quantifiable concentrations. For the IV dose, extrapolated null concentration (C0) was calculated and used as Cmax at time zero. For the oral doses, extrapolated value at time zero was assigned as 0.0 ng/m L. The AUC based on actual collection time point was from 0.083 to 24 hours for IV group and from 0.25 to 24 hour for PO group. Absolute bioavailability evaluation was determined as “% F” between single dose IV and oral dose, calculated as follows:
% F=Mean Dose Normalized AUC0-24 hr(PO)/Mean Dose Normalized AUC0-24 hr (IV).

Series [3] in a line: Pharmacokinetics of modified release sparsentan formulations, PO (Example 5). The series is classed as in vivo, male Sprague Dawley rats. As to conditions: male rats. On the procedure: Sparsentan was administered orally (“PO”) to male Sprague Dawley rats in a single or twice-a-day dose, as described in Table 14. Formulations were administered in a vehicle comprised of a mixture of 0.5% methylcellulose 4000 cps and 0.25% Tween 80 in distilled water. All animals were fasted overnight through approximately 4 hours post-dose. Animals receiving Formulation #2 were not fasted for the second dose administration.
Blood (approximately 0.3 mL) was collected from a jugular vein from each animal via syringe and needle and transferred into tubes containing K2EDTA at approximately 0.5, 1, 2, 4, 8 (prior to second dose for Group 2), 10, 12, and 24 hours post-dose. Another vein may be used as an alternative blood collection site. For each group, the following PK parameters were determined: maximum observed plasma concentration (Cmax), time of maximum observed plasma concentration (Tmax), and area under the plasma concentration-time curve (AUC). AUC from time 0 to 24 hours (AUC0-24 hr) was calculated for all groups with at least three consecutive quantifiable concentrations.

`CCCCC1=NC2(CCCC2)C(=O)N1Cc1ccc(-c2ccccc2S(=O)(=O)Nc2noc(C)c2C)c(COCC)c1` [Sparsentan, 2-[4-[(2-butyl-4-oxo-1,3-diazaspiro[4.4]non-1-en-3-yl)methyl]-2-(ethoxymethyl)phenyl]-N-(4,5-dimethyl-1,2-oxazol-3-yl)benzenesulfonamide] had a Tg in series [1] (melt-quench technique) of 42 °C. Also, in series [1] (modulated ramp up to 200° C.), the physical stability result was “stable as a neat amorphous form”.

What is called Cmax is the peak of the concentration-time curve. As a reminder, the Tmax is the time at which the peak concentration occurs. Take `CCCCC1=NC2(CCCC2)C(=O)N1Cc1ccc(-c2ccccc2S(=O)(=O)Nc2noc(C)c2C)c(COCC)c1` [crystalline sparsentan, 2-[4-[(2-butyl-4-oxo-1,3-diazaspiro[4.4]non-1-en-3-yl)methyl]-2-(ethoxymethyl)phenyl]-N-(4,5-dimethyl-1,2-oxazol-3-yl)benzenesulfonamide]: the “% F (dose-normalized AUC0-24 hr PO/IV)” value in series [2] (Group 2: PO 20 mg/kg) is 50.1%; in series [2] (Group 3: PO 60 mg/kg), 55.2%. Also, in series [2] (oral doses 20 and 60 mg/kg, male rats), the “Cmax increase with increasing dose (dose proportionality)” value is given as “approximately dose proportional”. Also, the peak level in series [3] (Sprague Dawley, rat, 60 mg/kg/day, plasma, dose mg/kg/day #1 60, #2 60 (30 x 2, from first dose), #3 38, #4 28.8, #5 30, #6 28.6) (Cmax) was 54.6 µg/mL. In addition, the AUC in series [3] (Sprague Dawley, rat, 60 mg/kg/day, plasma, dose mg/kg/day #1 60, #2 60 (total dose), #3 38, #4 28.8, #5 30, #6 28.6, read-out: AUC0.5-24 hr) turned out to be 311 µg·h/mL. The Tmax in series [3] (Sprague Dawley, rat, plasma, 60 mg/kg/day, median, dose mg/kg/day #1 60, #2 60 (30 x 2, from first dose), #3 38, #4 28.8, #5 30, #6 28.6) was determined as 4 h. Also, in series [3] (dose-normalized, #2 from first dose), the “Cmax/Dose” value was determined as 909 kg·ng/mL/mg. Also, in series [3] (dose-normalized, #2 from the total dose), the “AUC0.5-24 hr/Dose” value is 5189 kg·ng·h/mL/mg.
